In a melting point compilation (Tetko et al.; mined from patent text by program, amines drawn as free bases though some values may be those of a salt):

SMILES | melting point [°C]
CCOc1nc(=O)n(C(=O)NC(=O)CCl)s1 | 132
CNC(=O)CCSCc1csc(NC(N)=NCC(F)(F)F)n1 | 152 to 154
C[C@H](NC(=O)[C@@H](Cc1ccccc1)NS(=O)(=O)Cc1ccccc1)C(=O)NC1CCc2nc(N)sc2C1 (stereo not given in full) | 122 to 125
Cc1nc(N2CCC(c3ccccc3)CC2)c([N+](=O)[O-])c(=O)[nH]1 | 210 to 213
COc1ccc(N2CN(C)CNC2=S)cc1 | 194
CCCCCCCCCCCC(=O)C(C)(C)C(=O)Nc1c(OC)cc(OC)cc1OC | 92 to 94
CCOC(=O)N(c1ccccc1)c1cc(Cl)ccc1N | 98 to 101
Nc1ccccc1NCCCN1CCC(n2c(=O)[nH]c3cc(Cl)ccc32)CC1 | 196
C=CCON=C(C(=O)OCC)c1csc(NC(c2ccccc2)(c2ccccc2)c2ccccc2)n1 | 130 to 132
CC(C)(Oc1ccc(CC(=O)Nc2ccc(Cl)cc2)cc1)C(=O)O | 163
CC(=O)OC1=C(C(=O)c2ccc(C)cc2)C(c2ccc(OC(F)(F)F)cc2)N(c2ccc(C)nn2)C1=O (stereo not given) | 165 to 166
CCCCc1c2ccccc2cc2ccccc12 | 49
COc1cc(C(=O)OCC2(N(C)C)CCCc3sccc32)cc(OC)c1OC (stereo not given) | 82 to 83
CCc1cccc(-c2nc(=O)c3ccccc3s2)n1 | 150 to 151
c1cnc2ccc(Cn3cnc4ccc(-c5cn[nH]c5)nc43)cc2c1 | 214 to 216
CCOC(=O)CC1CCN(C(=O)c2ccccc2)CC1 | 47 to 48
COc1ncccc1-c1cnn2ccc(N3CCN(C(=O)OC(C)C)CC3)nc12 | 131 to 132
O=C(Nc1cccc(Br)c1)N(Cc1ccccc1)Cc1ccccc1 | 102 to 103
CCOC(=O)COc1ccccc1C(=O)Nc1ccc(Sc2ccccc2-c2nnn[nH]2)cc1 | 97 to 99
O=C(C=C1CCCN1)c1ccc(Cl)cc1 | 146 to 147

SMILES | melting point [°C]
COC(=O)c1cc(-c2ccc(OC)c(OC)c2)nn(CC=Cc2ccc(Cl)cc2)c1=O | 118 to 119
CCOC(=O)C(=CC(=CN(C)C)C(=O)C(=O)OC)Sc1ccccc1 | 118
COc1nc2cc([N+](=O)[O-])cc(C)c2nc1OC | 167 to 168
O=c1[nH]c(=O)n(CCCCN2CCC(OC(c3ccccc3)c3ccccc3)CC2)c2ccc(Cl)cc12 | 209 to 210
CCOC(=O)C=CC(=O)N1CC1C#N (stereo not given) | 54 to 56
CC1COCc2nc3c(N)nc4ccc(O)cc4c3n21 (stereo not given) | 262 to 264
CC(NC(=O)c1cc(Cl)cc(Br)c1NC(=O)c1cc(Br)nn1-c1ncccc1Cl)C1CC1 (stereo not given) | 244 to 247
O=C(O)CCCCC(=O)NC1C=CCCCC1 (stereo not given) | 132 to 133
CC(C)CC1(C(N)C(=O)OC(C)(C)C)CCN(CCc2ccccc2)C1=O (stereo not given) | 111 to 113
C=C(c1ccccc1OCCCCl)c1cccc2[nH]ccc12 | 70 to 72
C=CCS(=O)(=O)c1ncc(Cl)cn1 | 84
Cc1nc2c(O[C@@H]3c4ccccc4C[C@H]3O)cc(C(=O)NC3CC3)cc2n1C (relative stereo) | 148 to 149
O=S(=O)(c1ccccc1)n1ccc2c(OCC3CO3)cccc21 (stereo not given) | 96
C#CCN(C(=O)OC(C)(C)C)C1CCc2ccc([N+](=O)[O-])cc21 (stereo not given) | 56 to 59
O=C(O)c1ccccc1SSc1ccc([N+](=O)[O-])cc1C(Cl)(Cl)Cl | 224
Cc1oc(-c2ccccc2)nc1C(N)=O | 154 to 157
CN1CCN(Cc2ccc(C(=O)Nc3cccc(Nc4ncc(C#N)c(-c5cccs5)n4)c3)cc2)CC1 | 208 to 209
O[C@@H]1CN(CC2CC2)CC[C@@H]1c1ccccc1 (relative stereo) | 94 to 97
O=[N+]([O-])c1ccc(-c2n[nH]c3c2Cc2ccccc2-3)cc1 | 267 to 270
Cc1cccc2sc(-n3nc(CCCO)cc3-c3ccc(Cl)cc3)nc12 | 112 to 114
